Measurements taken from paper PMC10536928, “Discovery of New Pyrrolo[2,3-d]pyrimidine Derivatives as Potential Multi-Targeted Kinase Inhibitors and Apoptosis Inducers” (Pharmaceuticals, 2023).

Columns and labels:
[1] = target: T1, CDK2 (Homo sapiens, UniProt P24941); assay: In vitro protein kinase inhibition assay (ELISA kit); type: biochemical; conditions: triplicate
T1 construct: purchased
Method: (§1) In accordance with the documented procedures, fifteen derivatives of the synthesized compounds were evaluated for their inhibitory effects on EGFR, VEGFR-2, Her2, and CDK2 using specific human ELISA kits (Enzyme-Linked Immunosorbent Assay) designed for each respective kinase enzyme. Initially, various concentrations of the synthesized compounds were combined with specific antibodies for each enzyme in individual wells of a 96-well plate, followed by incubation at room temperature for 2.5 h. Subsequently, the plate was washed, and a biotin antibody (100 µL), prepared in-house, was added and allowed to incubate at ambient temperature for 1 h. After another washing step, a solution of streptavidin (100 µL) was introduced to each well and left for 45 min at room temperature. Following a third round of washing, a TMB Substrate (100 µL) reagent was applied to all wells and incubated for 30 min at room temperature. Finally, the reaction was terminated by adding 50 µL of a stop solution, and the absorbance was directly measured at 450 nm. A standard curve was constructed, illustrating the relationship between concentration (X-axis) and absorbance (Y-axis).

[2] = target: T2, EGFR (Homo sapiens, UniProt P00533); assay: as above; type: biochemical; conditions: triplicate
T2 construct: purchased
T2 sequence (P00533 25-1210): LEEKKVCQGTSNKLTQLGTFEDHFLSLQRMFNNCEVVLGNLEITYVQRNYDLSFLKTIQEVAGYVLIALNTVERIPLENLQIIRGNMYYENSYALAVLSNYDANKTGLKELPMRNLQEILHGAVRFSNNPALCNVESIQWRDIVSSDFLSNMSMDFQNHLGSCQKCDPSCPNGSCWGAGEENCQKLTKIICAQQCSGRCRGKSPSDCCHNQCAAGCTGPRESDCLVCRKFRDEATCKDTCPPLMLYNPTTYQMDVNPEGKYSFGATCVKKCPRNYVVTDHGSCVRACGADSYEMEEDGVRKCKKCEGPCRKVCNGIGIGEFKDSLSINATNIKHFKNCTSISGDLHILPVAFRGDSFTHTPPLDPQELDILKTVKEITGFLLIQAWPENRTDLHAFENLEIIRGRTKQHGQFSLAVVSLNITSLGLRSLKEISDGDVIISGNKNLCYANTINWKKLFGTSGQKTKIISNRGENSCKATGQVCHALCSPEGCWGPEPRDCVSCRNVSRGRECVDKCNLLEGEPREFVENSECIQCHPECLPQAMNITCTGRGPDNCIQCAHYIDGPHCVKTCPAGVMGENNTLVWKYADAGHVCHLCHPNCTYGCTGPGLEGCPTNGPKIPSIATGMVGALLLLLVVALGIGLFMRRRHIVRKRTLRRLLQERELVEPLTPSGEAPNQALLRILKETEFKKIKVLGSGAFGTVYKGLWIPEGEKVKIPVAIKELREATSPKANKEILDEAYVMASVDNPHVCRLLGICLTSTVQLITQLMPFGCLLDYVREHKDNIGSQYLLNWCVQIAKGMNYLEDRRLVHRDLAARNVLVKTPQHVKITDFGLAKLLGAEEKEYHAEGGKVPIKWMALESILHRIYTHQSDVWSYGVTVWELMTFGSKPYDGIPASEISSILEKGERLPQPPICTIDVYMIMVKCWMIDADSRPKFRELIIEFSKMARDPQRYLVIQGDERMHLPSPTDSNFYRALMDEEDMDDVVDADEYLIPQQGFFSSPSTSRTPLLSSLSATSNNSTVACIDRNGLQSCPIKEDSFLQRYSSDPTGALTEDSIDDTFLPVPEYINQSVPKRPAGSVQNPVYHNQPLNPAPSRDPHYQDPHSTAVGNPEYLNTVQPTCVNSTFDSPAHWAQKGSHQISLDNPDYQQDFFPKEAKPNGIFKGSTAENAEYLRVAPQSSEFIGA
Method: as §1

[3] = target: T3, Her2 (Homo sapiens, UniProt P04626); assay: as above; type: biochemical; conditions: triplicate
T3 construct: purchased
T3 sequence (P04626 23-1255): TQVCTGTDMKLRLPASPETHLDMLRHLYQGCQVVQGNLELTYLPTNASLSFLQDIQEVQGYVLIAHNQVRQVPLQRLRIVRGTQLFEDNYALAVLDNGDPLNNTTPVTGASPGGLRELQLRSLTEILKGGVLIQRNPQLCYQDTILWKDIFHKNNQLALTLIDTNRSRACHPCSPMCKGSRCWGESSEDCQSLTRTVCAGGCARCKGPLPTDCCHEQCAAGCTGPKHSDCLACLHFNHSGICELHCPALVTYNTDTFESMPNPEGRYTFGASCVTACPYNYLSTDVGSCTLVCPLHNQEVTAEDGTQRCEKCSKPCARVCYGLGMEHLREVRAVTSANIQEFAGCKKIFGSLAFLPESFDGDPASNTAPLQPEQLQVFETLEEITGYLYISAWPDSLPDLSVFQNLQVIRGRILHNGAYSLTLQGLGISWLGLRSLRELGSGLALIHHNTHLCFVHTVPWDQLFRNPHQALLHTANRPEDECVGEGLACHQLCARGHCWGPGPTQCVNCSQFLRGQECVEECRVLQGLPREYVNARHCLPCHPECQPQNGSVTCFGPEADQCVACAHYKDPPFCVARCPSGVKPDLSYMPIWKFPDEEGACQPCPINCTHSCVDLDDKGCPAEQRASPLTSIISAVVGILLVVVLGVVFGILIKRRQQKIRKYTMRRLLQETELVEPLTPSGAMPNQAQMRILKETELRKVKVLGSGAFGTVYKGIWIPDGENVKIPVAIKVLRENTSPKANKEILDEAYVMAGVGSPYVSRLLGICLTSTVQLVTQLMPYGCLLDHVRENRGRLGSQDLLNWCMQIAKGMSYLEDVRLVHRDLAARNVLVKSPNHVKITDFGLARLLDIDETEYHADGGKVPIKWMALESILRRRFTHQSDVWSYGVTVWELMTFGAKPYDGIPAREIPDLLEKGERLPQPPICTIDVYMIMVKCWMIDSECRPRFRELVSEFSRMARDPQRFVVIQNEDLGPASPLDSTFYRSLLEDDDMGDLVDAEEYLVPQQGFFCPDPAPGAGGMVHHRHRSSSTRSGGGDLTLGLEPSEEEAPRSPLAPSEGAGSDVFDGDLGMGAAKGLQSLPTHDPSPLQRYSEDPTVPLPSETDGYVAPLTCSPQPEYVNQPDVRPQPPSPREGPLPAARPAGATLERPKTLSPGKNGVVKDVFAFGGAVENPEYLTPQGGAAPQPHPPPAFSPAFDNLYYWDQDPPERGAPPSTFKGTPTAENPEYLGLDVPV
Method: as §1

[4] = target: T4, VEGFR2 (Homo sapiens, UniProt P35968); assay: as above; type: biochemical; conditions: triplicate
T4 construct: purchased
T4 sequence (P35968 20-1356): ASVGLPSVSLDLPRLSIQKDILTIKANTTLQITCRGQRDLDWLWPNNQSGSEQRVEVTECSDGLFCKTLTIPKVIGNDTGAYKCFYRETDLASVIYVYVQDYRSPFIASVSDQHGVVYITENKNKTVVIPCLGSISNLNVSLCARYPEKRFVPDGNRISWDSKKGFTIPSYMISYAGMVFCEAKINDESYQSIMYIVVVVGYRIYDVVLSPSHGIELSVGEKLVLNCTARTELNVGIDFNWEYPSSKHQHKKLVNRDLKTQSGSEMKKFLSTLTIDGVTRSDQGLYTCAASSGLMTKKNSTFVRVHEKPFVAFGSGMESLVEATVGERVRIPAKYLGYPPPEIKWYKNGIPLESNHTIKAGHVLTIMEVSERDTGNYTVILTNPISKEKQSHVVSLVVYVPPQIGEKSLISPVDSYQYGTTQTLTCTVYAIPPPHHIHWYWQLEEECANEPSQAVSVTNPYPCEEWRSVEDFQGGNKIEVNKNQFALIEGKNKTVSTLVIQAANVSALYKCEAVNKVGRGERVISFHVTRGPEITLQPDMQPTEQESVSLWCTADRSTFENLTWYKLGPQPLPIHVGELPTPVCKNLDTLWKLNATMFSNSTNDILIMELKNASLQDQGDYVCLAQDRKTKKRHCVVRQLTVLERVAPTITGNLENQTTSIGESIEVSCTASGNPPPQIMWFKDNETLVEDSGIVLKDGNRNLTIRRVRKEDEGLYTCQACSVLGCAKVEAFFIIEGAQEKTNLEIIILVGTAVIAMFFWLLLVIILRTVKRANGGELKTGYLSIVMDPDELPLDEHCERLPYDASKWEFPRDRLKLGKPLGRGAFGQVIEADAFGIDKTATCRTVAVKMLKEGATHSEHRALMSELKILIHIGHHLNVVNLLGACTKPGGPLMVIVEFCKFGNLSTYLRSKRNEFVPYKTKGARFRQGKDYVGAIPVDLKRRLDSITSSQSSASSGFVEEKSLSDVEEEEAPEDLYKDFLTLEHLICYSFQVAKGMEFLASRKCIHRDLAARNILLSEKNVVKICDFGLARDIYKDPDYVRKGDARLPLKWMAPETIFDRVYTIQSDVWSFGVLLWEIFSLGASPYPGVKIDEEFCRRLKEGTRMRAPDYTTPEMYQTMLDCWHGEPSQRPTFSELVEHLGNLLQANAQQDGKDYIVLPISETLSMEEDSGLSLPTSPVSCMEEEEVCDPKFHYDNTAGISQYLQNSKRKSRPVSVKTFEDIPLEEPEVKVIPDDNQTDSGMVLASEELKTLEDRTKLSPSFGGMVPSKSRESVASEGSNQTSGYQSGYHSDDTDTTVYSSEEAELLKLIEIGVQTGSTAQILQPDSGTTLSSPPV
Method: as §1

[5] = system: four different cancer cell lines (MCF-7, HepG2, MDA-MB-231, HeLa); assay: MTT cytotoxicity assay, range over the four cell lines; type: cell-based; conditions: read-out: IC50 values, range over the tested cancer cell lines
Method: The cytotoxic effects of compounds 5a–m were evaluated using a standard MTT method against four different cancer cell lines, namely mammary gland cancer (MCF-7), hepatocellular carcinoma (HepG2), breast cancer (MDA-MB-231), and epithelioid cervix carcinoma (HeLa). […] These findings highlight the potential of these compounds as candidates for further development as cytotoxic agents for cancer treatment.
The cytotoxicity of compounds 5a–m was assessed against various cancer cell lines and one normal cell line using the described methodology. In brief, the cells were cultured in 96-well plates with a density of 1.0 × 10^4 cells per well, supplemented with 10% fetal bovine serum (FBS), an antibiotic cocktail, and RPMI 11,640 medium. The cells were then incubated for 48 h with 5% CO2 and 100% relative humidity at 37 °C. […] Following treatment, the addition of 20 µL of MTT solution was added to each well and incubation was continued for another 4 h, after which dimethyl sulfoxide (100 µL) was used to dissolve the resulting insoluble formazan. The absorbance was measured at 570 nm using a BioTek EXL 800 plate reader (Agilent Technologies, CA, USA). By comparing the absorbance of treated samples to untreated samples, the relative cell viability percentage was calculated as (A570 of treated samples/A570 of untreated sample) × 100. The IC50 values were determined based on triplicate measurements.

[6] = system: epithelioid cervix carcinoma (HeLa); assay: MTT cytotoxicity assay; type: cell-based; conditions: Homo sapiens, 24 h exposure, mean ± SD of triplicate
[7] = system: HepG2 cells; assay: Annexin-V/propidium iodide double staining assay; type: cell-based; conditions: compound at its IC50, 24 h
Method: To investigate the type of cell death induced by compound 5k, flow cytometry analysis was conducted. […] Subsequently, the cells were double stained with Annexin V and propidium iodide (PI). […] Apoptosis is a process of programmed cell death that occurs naturally in the body, while necrosis is a type of cell death that occurs due to damage or injury to the cell. […] In the early stage of the experiment, the percentage of apoptotic cells was 0.51% in the control group and 15.63% in the 5k treated group. In the late stage, the percentage of apoptotic cells was 0.29% in the control group and 9.74% in the 5k treated group.
In contrast, the percentage of necrotic cells was also higher in the 5k treated group compared to the control group. The percentage of necrotic cells was 1.58% in the control group and 4.17% in the 5k treated group. […] Further studies are needed to determine the underlying mechanisms of this effect and to assess the potential therapeutic applications of compound 5k in the treatment of diseases involving abnormal cell death.
To investigate the apoptotic effects of the synthesized compound 5k, HepG2 cells were cultured in triplicate at a density of 2.0 × 10^5 cells per well. Subsequently, the cells were treated with the selected compounds at their respective IC50 values determined by the MTT assay. After 24 h, the cells were detached using trypsin, collected, and then centrifuged. Following two washes with PBS, the cells were resuspended in 0.1 mL of binding buffer. Dual staining was performed by adding Annexin V-FITC (5 µL) and propidium iodide (5 µL) to the cell suspension, which was then incubated in the dark for 15 min at room temperature. Flow cytometry analysis was performed using the Epics XL-MCL™ flow cytometry equipment (Beckman Coulter, Apeldoorn, The Netherlands) with an excitation wavelength of 488 nm and an emission wavelength of 530 nm. Finally, the experimental results were analyzed using flowing “Turku Centre for Biotechnology” software, version 2.5.1 (Turku, Finland).

[8] = system: HepG2 cells; assay: Cell cycle analysis (propidium iodide flow cytometry); type: cell-based
Description: The objective of the study was to evaluate the influence of the synthesized compounds on the progression of the cell cycle in HepG2 cells.
The observed modifications in cell cycle distribution following drug treatment indicate a potential mechanism of action involving cell cycle arrest, a commonly employed therapeutic strategy for suppressing cancer cell proliferation. By impeding cells in the G0–G1 phase, drugs can effectively prevent them from proceeding to the S phase, where DNA replication takes place, and ultimately lead to cell death. […] The cell cycle distribution index (CDI) is a metric that quantifies the rate of cell proliferation and can be derived from the percentage of cells in each phase of the cell cycle. The CDI was calculated using the formula: CDI = (G2/M + S)/[…], wherein G0/G1, S, and G2/M denote the percentages of cells in the respective phases of the cell cycle. The CDI values for the control and compound 5k were determined to be 1.35 and 1.03, respectively.
To investigate the impact of the synthesized compound 5k on cell cycle progression, the ab139418 Propidium Iodide flow cytometry kit/BD was utilized. Initially, HepG2 cells were seeded in triplicate at a density of 2 × 10^5 cells per well in 6-well plates and incubated for 24 h. […] Following treatment, the HepG2 cells were fixed with 70% ethanol and incubated for 12 h at 4 °C. Subsequently, the wells were washed with cold PBS, treated with RNase A (100 µL) at 37 °C for 30 min, and stained with Propidium Iodide (400 µL) in a dark environment at room temperature for another 30 min. The labeled cells were then analyzed using the Epics XLMCL™ flow cytometer equipment (Beckman Coulter, Apeldoorn, the Netherlands). Finally, the experimental results were analyzed using Turku Centre for Biotechnology software version 2.5.1 (Turku, Finland).

IC50 [1]: 204 nM
IC50 [2]: 79 nM
IC50 [3]: 40 nM
IC50 [4]: 136 nM
Compound: O=C(N/N=C/c1ccc(Cl)c(Cl)c1)c1ccc(Nc2ncnc3[nH]ccc23)cc1 [Compound 5k, (E)-4-((7H-Pyrrolo[2,3-d]pyrimidin-4-yl)amino)-N’-(3,4-dichlorobenzylidene)benzohydrazide]
IC50 [5]: 29 to 59 µM
IC50 [6]: 57.8 ± 3.1 µM
Apoptosis Late ([7]; control 0.29): 9.74%
Apoptosis Early ([7]; control 0.51): 15.63%
Necrosis ([7]; control 1.58): 4.17%
Cell Cycle Distribution Index (CDI) ([8]; CDI = (G2/M + S)/G0/G1, control 1.35): 1.03
DNA Content (%) %G2/M ([8]; compound at its IC50, 24 h, control 19.38): 18.3%
DNA Content (%) %S ([8]; compound at its IC50, 24 h, control 36.76): 32.52%
DNA Content (%) %G0–G1 ([8]; compound at its IC50, 24 h, control 43.86): 49.18%
